From patent US10899769B2, “Imidazopiperazinone inhibitors of transcription activating proteins” (Board of Regents, The University of Texas System, priority 2018, dated 2021)

Tests used:
[1] = molecular target: GST-CBP(1081-1197) bromodomain (Homo sapiens (Human), UniProt Q92793); assay: CBP AlphaScreen Assay; conditions: binding to biotin-H4(1-21) Ac-K5/8/12/16
Description: (§1) Specific binding of the CBP or BRD4 bromodomain to the acetylated peptide derived from the H4 histone substrate (tetra acetylated H4(1-21) Ac-K5/8/12/16) was measured in absence or presence of inhibitors. The GST tagged bromodomains of CBP (1081-1197) and BRD4 (49-170) were obtained from BPS Bioscience and binding to the biotinylated H4(1-21) Ac-K5/8/12/16 (AnaSpec. 64989) was assessed via AlphaScreen technology (Perkin Elmer).
(§2) 5 nM GST-CBP(1081-1197) and 20 nM biotin-H4(1-21) Ac-K5/8/12/16 (AnaSpec. 64989) were incubated with varying concentrations of CBP inhibitors in 15 μL of buffer containing 50 mM HEPES 7.5, […], 1 mM TCEP, and 0.003% Tween-20. After 30 minutes incubation at room temperature, 15 μL of detection buffer (BPS Bio. 33006) containing 7 μg/mL of Glutathione AlphaLisa acceptor beads (Perkin Elmer AL109) and 14 μg/mL of Streptavidin donor beads (Perkin Elmer 676002) was then added to the previous mixture. The reaction was incubated for an additional 2 hours at room temperature, and the AlphaScreen signal was quantified using the Envision Multilabel plate reader. As negative control, GST-CBP(1081-1197) was incubated with the non-acetylated biotin-H4(1-21) peptide(AnaSpec. 62555) and in presence of 0.25% of final DMSO concentration.
(§3) the binding of 2.5 nM of BRD4(49-170) to 10 nM biotin-H4(1-21) Ac-K5/8/12/16 (AnaSpec. 64989) was assessed following the same procedure described for the CBP assay. The standard dose response curves were fitted by Genedata Screener software using the variable-slope model: Signal=Signalnegative control+(SignalDMSO control−Signalnegative control)/(1+(IC50/Dose)^Hill slope).
(§4) Only Signal and Dose in the equation were treated as know values.

BRD4(49-170) bromodomain = BRD4(49-170) bromodomain (Homo sapiens (Human), UniProt O60885); assay: BRD4 AlphaScreen Assay; conditions: binding to biotin-H4(1-21) Ac-K5/8/12/16
Description: as §1, §2, §3, §4

Chain of GST-CBP(1081-1197) bromodomain (Q92793 1081-1197): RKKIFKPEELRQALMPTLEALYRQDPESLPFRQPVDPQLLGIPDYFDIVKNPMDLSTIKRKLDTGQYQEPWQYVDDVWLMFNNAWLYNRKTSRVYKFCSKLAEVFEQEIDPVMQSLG

Structure (SMILES): Cc1cn(-c2cc3cccc(-c4nc(C5CCOCC5)n5c4CN(C)C(=O)C5C)c3cn2)cn1 (single isomer, unassigned) [Example 30b, 5,7-dimethyl-1-(3-(4-methyl-1H-imidazol-1-yl)isoquinolin-8-yl)-3-(tetrahydro-2H-pyran-4-yl)-7,8-dihydroimidazo[1,5-a]pyrazin-6(5H)-one]
- IC50 [1]: 373 nM
- IC50 (BRD4(49-170) bromodomain): 18.6 µM

Structure (SMILES): CC1C(=O)N(C)Cc2c(-c3c(F)ccc4cc(C5CCOCC5)ncc34)nc(C3CCOCC3)n21 (single isomer, unassigned) [Example 34a, 1-(7-Fluoro-3-(tetrahydro-2H-pyran-4-yl)isoquinolin-8-yl)-5,7-dimethyl-3-(tetrahydro-2H-pyran-4-yl)-7,8-dihydroimidazo[1,5-a]pyrazin-6(5H)-one]
- IC50 [1]: 2460 nM
- IC50 (BRD4(49-170) bromodomain): ≥ 25 µM

Structure (SMILES): CC1C(=O)N(C)Cc2c(-c3cc4c(-c5cnn(C)c5)nn(C)c4cc3F)nc(C3CCOCC3)n21 (stereo not shown) [Example 43, 1-(6-Fluoro-1-methyl-3-(1-methyl-1H-pyrazol-4-yl)-1H-indazol-5-yl)-5,7-dimethyl-3-(tetrahydro-2H-pyran-4-yl)-7,8-dihydroimidazo[1,5-a]pyrazin-6(5H)-one 2,2,2-trifluoroacetate]
- IC50 [1]: 6 nM
- IC50 (BRD4(49-170) bromodomain): 1.44 µM

Structure (SMILES): C[C@@H]1C(=O)N(C)Cc2c(-c3cccc4cc(-c5cnn(C)c5)ncc34)nc(C3CC3)n21 [Example 111b, (R)-3-cyclopropyl-5,7-dimethyl-1-(3-(1-methyl-1H-pyrazol-4-yl)isoquinolin-8-yl)-7,8-dihydroimidazo[1,5-a] pyrazin-6(5H)-one]
- IC50 [1]: 1 nM
- IC50 (BRD4(49-170) bromodomain): 0.089 µM

Structure (SMILES): Cn1cc(-c2cc3cccc(-c4nc(C5CC5)n5c4CN(CCF)C(=O)C5)c3cn2)cn1 [Example 7, 3-Cyclopropyl-7-(2-fluoroethyl)-1-(3-(1-methyl-1H-pyrazol-4-yl)isoquinolin-8-yl)-7,8-dihydroimidazo[1,5-a]pyrazin-6(5H)-one]
- IC50 [1]: 19 nM
- IC50 (BRD4(49-170) bromodomain): 4.97 µM

Structure (SMILES): CC1C(=O)N(C)Cc2c(-c3cccc4cc(-c5cnn(C)c5)ncc34)nc(C3CCOCC3)n21 (stereo not shown) [Example 109, 5,7-dimethyl-1-(3-(1-methyl-1H-pyrazol-4-yl)isoquinolin-8-yl)-3-(tetrahydro-2H-pyran-4-yl)-7,8-dihydroimidazo[1,5-a] pyrazin-6(5H)-one]
- IC50 [1]: 2 nM
- IC50 (BRD4(49-170) bromodomain): 0.341 µM

Structure (SMILES): CC1C(=O)N(C)Cc2c(-c3ccn4cncc4c3)nc(C3CC3)n21 (stereo not shown) [Example 57, 3-cyclopropyl-1-(imidazo[1,5-a]pyridin-7-yl)-5,7-dimethyl-7,8-dihydroimidazo[1,5-a] pyrazin-6(5H)-one]
- IC50 [1]: 1070 nM
- IC50 (BRD4(49-170) bromodomain): 2.61 µM

Structure (SMILES): Cc1nn(C)cc1-c1cc2ccc(F)c(-c3nc(C4CCOCC4)n4c3CN(C)C(=O)C4)c2cn1 [Example 97, 1-(3-(1,3-dimethyl-1H-pyrazol-4-yl)-7-fluoroisoquinolin-8-yl)-7-methyl-3-(tetrahydro-2H-pyran-4-yl)-7,8-dihydroimidazo[1,5-a] pyrazin-6(5H)-one]
- IC50 [1]: 323 nM
- IC50 (BRD4(49-170) bromodomain): 25 µM

Structure (SMILES): CC1C(=O)N(C)Cc2c(-c3cccc4nc(-c5ncco5)c(C(F)F)cc34)nc(C3CC3)n21 (stereo not shown) [Example 74, 3-cyclopropyl-1-(3-(difluoromethyl)-2-(oxazol-2-yl)quinolin-5-yl)-5,7-dimethyl-7,8-dihydroimidazo[1,5-a] pyrazin-6(5H)-one]
- IC50 [1]: 4 nM
- IC50 (BRD4(49-170) bromodomain): 0.179 µM

Structure (SMILES): C[C@H]1C(=O)N(C)Cc2c(-c3cccc4cc(-c5cnn(C)c5)ncc34)nc(C3CC3)n21 [Example 111a, (S)-3-cyclopropyl-5,7-dimethyl-1-(3-(1-methyl-1H-pyrazol-4-yl)isoquinolin-8-yl)-7,8-dihydroimidazo[1,5-a] pyrazin-6(5H)-one]
- IC50 [1]: 510 nM
- IC50 (BRD4(49-170) bromodomain): 25 µM

Structure (SMILES): CC1C(=O)N(C)Cc2c(-c3cccc4nc(-c5cnn(C)c5)c(C(F)F)cc34)nc(C3CCN(CCO)CC3)n21 (stereo not shown) [Example 84, 1-(3-(difluoromethyl)-2-(1-methyl-1H-pyrazol-4-yl)quinolin-5-yl)-3-(1-(2-hydroxyethyl)piperidin-4-yl)-5,7-dimethyl-7,8-dihydroimidazo[1,5-a] pyrazin-6(5H)-one]
- IC50 [1]: 230 nM
- IC50 (BRD4(49-170) bromodomain): 11.7 µM

Structure (SMILES): CC1C(=O)N(C)Cc2c(-c3cccc4nc(-c5cnn(C)c5)c(C(F)F)cc34)nc(C3CN(CCF)C3)n21 (stereo not shown) [Example 25, 1-(3-(Difluoromethyl)-2-(1-methyl-1H-pyrazol-4-yl)quinolin-5-yl)-3-(1-(2-fluoroethyl)azetidin-3-yl)-5,7-dimethyl-7,8-dihydroimidazo[1,5-a]pyrazin-6(5H)-one]
- IC50 [1]: 26 nM
- IC50 (BRD4(49-170) bromodomain): 11.6 µM

Structure (SMILES): CN1Cc2c(-c3cccc4nc(-c5cnn(C)c5)c(C(F)F)cc34)nc(C3CCOCC3)n2CC1=O [Example 93, 1-(3-(difluoromethyl)-2-(1-methyl-1H-pyrazol-4-yl)quinolin-5-yl)-7-methyl-3-(tetrahydro-2H-pyran-4-yl)-7,8-dihydroimidazo [1,5-a] pyrazin-6(5H)-one]
- IC50 [1]: 357 nM
- IC50 (BRD4(49-170) bromodomain): 25 µM

Structure (SMILES): CC1C(=O)N(C)Cc2c(-c3cccc4cc(-c5nn[nH]n5)ncc34)nc(C3CC3)n21 (stereo not shown) [Example 17, 1-(3-(2H-Tetrazol-5-yl)isoquinolin-8-yl)-3-cyclopropyl-5,7-dimethyl-7,8-dihydroimidazo[1,5-a]pyrazin-6(5H)-one]
- IC50 [1]: 2 nM
- IC50 (BRD4(49-170) bromodomain): 3.03 µM

Structure (SMILES): Cc1ncc(-c2cc3ccc(C)c(-c4nc(C5CCOCC5)n5c4CN(C)C(=O)C5C)c3cn2)s1 (single isomer, unassigned) [Example 38b]
- IC50 [1]: 302 nM
- IC50 (BRD4(49-170) bromodomain): 4.86 µM

Structure (SMILES): CNC(=O)N1CCC(c2nc(-c3cccc4nc(-c5cnn(C)c5)c(C(F)F)cc34)c3n2C(C)C(=O)N(C)C3)CC1 (stereo not shown) [Example 79, 4-(1-(3-(difluoromethyl)-2-(1-methyl-1H-pyrazol-4-yl)quinolin-5-yl)-5,7-dimethyl-6-oxo-5,6,7,8-tetrahydroimidazo[1,5-a]pyrazin-3-yl)-N-methylpiperidine-1-carboxamide]
- IC50 [1]: 39 nM
- IC50 (BRD4(49-170) bromodomain): 2.43 µM

Structure (SMILES): Cc1nn(C)cc1-c1cc2ccc(F)c(-c3nc(C4CCOCC4)n4c3CN(C)C(=O)C4C)c2cn1 (single isomer, unassigned) [Example 91b, 1-(3-(1,3-dimethyl-1H-pyrazol-4-yl)-7-fluoroisoquinolin-8-yl)-5,7-dimethyl-3-(tetrahydro-2H-pyran-4-yl)-7,8-dihydroimidazo[1,5-a] pyrazin-6(5H)-one]
- IC50 [1]: 3 nM
- IC50 (BRD4(49-170) bromodomain): 0.287 µM

Structure (SMILES): Cc1nn(C)cc1-c1cc2ccc(F)c(-c3nc(C4CCOCC4)n4c3CN(C)C(=O)C4C)c2cn1 (single isomer, unassigned) [Example 91a, 1-(3-(1,3-dimethyl-1H-pyrazol-4-yl)-7-fluoroisoquinolin-8-yl)-5,7-dimethyl-3-(tetrahydro-2H-pyran-4-yl)-7,8-dihydroimidazo[1,5-a] pyrazin-6(5H)-one]
- IC50 [1]: 3610 nM
- IC50 (BRD4(49-170) bromodomain): 25 µM

Structure (SMILES): CN1Cc2c(-c3cccc4nc(-c5cnn(C)c5)c(C#N)cc34)nc(C3CCOCC3)n2CC1=O [Example 92, 2-(1-methyl-1H-pyrazol-4-yl)-5-(7-methyl-6-oxo-3-(tetrahydro-2H-pyran-4-yl)-5,6,7,8-tetrahydroimidazo[1,5-a]pyrazin-1-yl)quinoline-3-carbonitrile]
- IC50 [1]: 63 nM
- IC50 (BRD4(49-170) bromodomain): 25 µM

Structure (SMILES): C[C@H]1C(=O)N(C)Cc2c(-c3cccc4nc(-c5ccn(C)n5)c(C(F)F)cc34)nc(C3CCOCC3)n21 [Example 89b, (S)-1-(3-(difluoromethyl)-2-(1-methyl-1H-pyrazol-3-yl)quinolin-5-yl)-5,7-dimethyl-3-(tetrahydro-2H-pyran-4-yl)-7,8-dihydroimidazo[1,5-a] pyrazin-6(5H)-one]
- IC50 [1]: 482 nM
- IC50 (BRD4(49-170) bromodomain): 20.8 µM

Structure (SMILES): CC1C(=O)N(C)Cc2c(N3CCCc4cc(-c5cnn(C)c5)c(C(F)F)cc43)nc(C3CC3)n21 (stereo not shown) [Example 49, 3-cyclopropyl-1-(7-(difluoromethyl)-6-(1-methyl-1H-pyrazol-4-yl)-3,4-dihydroquinolin-1(2H)-yl)-5,7-dimethyl-7,8-dihydroimidazo[1,5-a] pyrazin-6(5H)-one]
- IC50 [1]: 1 nM
- IC50 (BRD4(49-170) bromodomain): 0.332 µM

Structure (SMILES): CC1C(=O)N(C)Cc2c(-c3cc4c(-c5cnn(C)c5)nn(C)c4cc3F)nc(C3=CCOCC3)n21 (stereo not shown) [Example 42, 3-(3,6-Dihydro-2H-pyran-4-yl)-1-(6-fluoro-1-methyl-3-(1-methyl-1H-pyrazol-4-yl)-1H-indazol-5-yl)-5,7-dimethyl-7,8-dihydroimidazo[1,5-a]pyrazin-6(5H)-one]
- IC50 [1]: 28 nM
- IC50 (BRD4(49-170) bromodomain): 3.33 µM

Structure (SMILES): CC1C(=O)N(C)Cc2c(-c3ccc4c(cnn4C)c3)nc(C3CC3)n21 (stereo not shown) [Example 50, 3-cyclopropyl-5,7-dimethyl-1-(1-methyl-1H-indazol-5-yl)-7,8-dihydroimidazo[1,5-a] pyrazin-6(5H)-one]
- IC50 [1]: 155 nM
- IC50 (BRD4(49-170) bromodomain): 1.18 µM
